Literature values as cited in PMC4101043 (Antiviral research, 2014).
Like-named read-outs stand apart in the source and are kept apart here.

What was measured:
[1] = dosage and study duration differ
[2] = test system: Wild-Type HIV-1 NL4-3; details: MT-4 cells
[3] = test system: UGTs; details: stated as known, no reference given
[4] = CPE inhibition, ref Okello et al., 2013a

SMILES | NOAEL ([1]; adult rats, ref Rhodes et al., 2012) [mg/kg/day] | EC50 ([2]; ref Kobayashi et al., 2011) [pM] | UGT substrate status / dependence on UGTs for clearance [3] | EC50 [2, 4] [pM] | NOAEL ([1]; ref Merck, 2007) [mg/kg/day] | t1/2 (rats, po doses of 40–120 mg/kg, ref Merck, 2007) [h] | Cl rate (rats, ref Laufer et al., 2009) [mL/min/kg] | Oral bioavailability (F) (ref Merck, 2007) [%]
C[C@@H]1CCO[C@H]2Cn3cc(C(=O)NCc4ccc(F)cc4F)c(=O)c(O)c3C(=O)N12 [dolutegravir] | 50 | 710 | substrates and depend on UGTs for clearance |  |  |  |  | 
COc1cc2c(cc1Cc1cccc(Cl)c1F)c(=O)c(C(=O)O)cn2[C@H](CO)C(C)C [elvitegravir] |  |  | substrates and depend on UGTs for clearance | 820 |  |  |  | 
Cc1nnc(C(=O)NC(C)(C)c2nc(C(=O)NCc3ccc(F)cc3)c(O)c(=O)n2C)o1 [raltegravir] |  |  | substrates and depend on UGTs for clearance | 6540 | 120 | ≤ 1.6 | 38.3 | 32
